# In ChEMBL document CHEMBL1123666, “Conformationally defined adrenergic agents. 4. 1-(aminomethyl)phthalans: synthesis and pharmacological consequences of the phthalan ring oxygen atom” (J Med Chem, 1987):
# How the values were obtained:
# [1] = Ratio of ED50 of NE to ED50 of CPD from PBZ-pretreated dog alpha-2 adrenoceptor
# [2] = target: Adrenergic receptor alpha-1 (Homo sapiens) (UniProt P35348+P25100+P35368); test: In vitro alpha 1 adrenergic activity using isolated rabbit aorta expressed as percent maximum response of the tissue to norepinephrine.; type: functional, tissue-based; settings: Oryctolagus cuniculus
# [3] = target: T1, Adrenergic receptor alpha-1 (Homo sapiens, UniProt P35348+P25100+P35368); test: Binding affinity towards alpha 1 adrenergic receptor; type: protein assay, Oryctolagus cuniculus
# T1 sequence (P35348 whole entry): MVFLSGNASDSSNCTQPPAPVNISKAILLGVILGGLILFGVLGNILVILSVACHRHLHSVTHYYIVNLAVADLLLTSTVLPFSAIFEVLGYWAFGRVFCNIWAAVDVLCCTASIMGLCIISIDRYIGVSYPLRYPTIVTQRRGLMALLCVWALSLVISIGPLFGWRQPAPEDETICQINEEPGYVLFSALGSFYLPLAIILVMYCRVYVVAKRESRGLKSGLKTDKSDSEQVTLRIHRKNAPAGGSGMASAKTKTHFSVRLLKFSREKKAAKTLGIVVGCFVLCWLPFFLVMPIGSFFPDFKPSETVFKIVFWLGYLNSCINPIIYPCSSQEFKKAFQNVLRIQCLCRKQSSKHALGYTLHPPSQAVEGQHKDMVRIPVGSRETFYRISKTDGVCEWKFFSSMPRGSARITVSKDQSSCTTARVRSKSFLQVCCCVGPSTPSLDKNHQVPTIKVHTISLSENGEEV
# T1 sequence (P25100 whole entry): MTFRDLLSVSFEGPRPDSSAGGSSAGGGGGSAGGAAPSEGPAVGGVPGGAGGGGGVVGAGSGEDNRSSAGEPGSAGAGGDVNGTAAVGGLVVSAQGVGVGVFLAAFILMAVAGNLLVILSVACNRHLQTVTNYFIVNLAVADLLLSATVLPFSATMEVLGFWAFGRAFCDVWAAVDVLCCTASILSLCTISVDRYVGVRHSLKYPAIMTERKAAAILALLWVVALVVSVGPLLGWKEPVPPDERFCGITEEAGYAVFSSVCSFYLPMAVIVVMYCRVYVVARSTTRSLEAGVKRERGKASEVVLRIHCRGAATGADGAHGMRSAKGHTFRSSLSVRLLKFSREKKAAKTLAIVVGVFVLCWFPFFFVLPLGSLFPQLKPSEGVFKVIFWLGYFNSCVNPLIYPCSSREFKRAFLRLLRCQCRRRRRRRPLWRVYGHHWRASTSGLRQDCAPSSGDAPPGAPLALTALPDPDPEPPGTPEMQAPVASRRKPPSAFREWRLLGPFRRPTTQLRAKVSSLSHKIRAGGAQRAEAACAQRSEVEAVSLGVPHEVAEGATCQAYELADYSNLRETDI
# T1 sequence (P35368 whole entry): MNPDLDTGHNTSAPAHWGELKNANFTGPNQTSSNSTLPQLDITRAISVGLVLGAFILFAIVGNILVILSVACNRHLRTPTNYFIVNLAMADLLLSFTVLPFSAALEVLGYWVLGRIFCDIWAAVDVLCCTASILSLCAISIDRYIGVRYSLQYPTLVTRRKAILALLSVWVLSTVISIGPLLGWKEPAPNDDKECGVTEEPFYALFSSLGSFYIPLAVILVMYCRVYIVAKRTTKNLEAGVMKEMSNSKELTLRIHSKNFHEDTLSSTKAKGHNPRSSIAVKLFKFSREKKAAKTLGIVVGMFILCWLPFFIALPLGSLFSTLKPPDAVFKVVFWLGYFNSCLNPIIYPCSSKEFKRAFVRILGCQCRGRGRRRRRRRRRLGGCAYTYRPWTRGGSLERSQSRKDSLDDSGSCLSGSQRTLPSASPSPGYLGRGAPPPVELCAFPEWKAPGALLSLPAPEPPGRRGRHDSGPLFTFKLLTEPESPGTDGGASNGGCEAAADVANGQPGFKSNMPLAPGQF
# [4] = target: T2, Adrenergic receptor alpha-2 (Homo sapiens, UniProt P08913+P18825+P18089); test: Binding affinity towards alpha 2 adrenergic receptor; type: protein assay, Canis lupus familiaris
# T2 sequence (P08913 whole entry): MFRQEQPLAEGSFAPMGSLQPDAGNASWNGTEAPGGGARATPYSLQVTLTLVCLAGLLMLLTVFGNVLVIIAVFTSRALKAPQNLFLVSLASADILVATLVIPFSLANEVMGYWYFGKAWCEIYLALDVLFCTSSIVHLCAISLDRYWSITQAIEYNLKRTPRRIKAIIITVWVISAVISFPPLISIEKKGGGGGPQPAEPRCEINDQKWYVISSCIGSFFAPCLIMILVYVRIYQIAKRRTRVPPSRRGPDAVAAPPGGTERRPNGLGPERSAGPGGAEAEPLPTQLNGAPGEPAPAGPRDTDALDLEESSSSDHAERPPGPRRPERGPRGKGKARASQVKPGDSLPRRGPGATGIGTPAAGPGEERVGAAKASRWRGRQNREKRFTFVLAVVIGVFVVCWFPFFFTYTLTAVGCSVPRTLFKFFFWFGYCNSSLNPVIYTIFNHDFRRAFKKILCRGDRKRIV
# T2 sequence (P18825 whole entry): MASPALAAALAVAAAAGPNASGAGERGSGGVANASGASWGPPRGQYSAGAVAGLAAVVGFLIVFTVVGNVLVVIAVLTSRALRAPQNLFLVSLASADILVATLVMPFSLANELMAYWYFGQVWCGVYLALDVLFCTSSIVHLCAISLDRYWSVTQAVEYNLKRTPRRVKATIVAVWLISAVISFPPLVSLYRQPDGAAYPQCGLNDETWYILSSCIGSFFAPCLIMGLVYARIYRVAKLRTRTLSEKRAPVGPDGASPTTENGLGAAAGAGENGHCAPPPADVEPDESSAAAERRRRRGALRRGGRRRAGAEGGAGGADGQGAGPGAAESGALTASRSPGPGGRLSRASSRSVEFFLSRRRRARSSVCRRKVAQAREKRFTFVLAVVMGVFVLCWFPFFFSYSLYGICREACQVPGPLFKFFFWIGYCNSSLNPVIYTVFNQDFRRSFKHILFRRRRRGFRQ
# T2 sequence (P18089 whole entry): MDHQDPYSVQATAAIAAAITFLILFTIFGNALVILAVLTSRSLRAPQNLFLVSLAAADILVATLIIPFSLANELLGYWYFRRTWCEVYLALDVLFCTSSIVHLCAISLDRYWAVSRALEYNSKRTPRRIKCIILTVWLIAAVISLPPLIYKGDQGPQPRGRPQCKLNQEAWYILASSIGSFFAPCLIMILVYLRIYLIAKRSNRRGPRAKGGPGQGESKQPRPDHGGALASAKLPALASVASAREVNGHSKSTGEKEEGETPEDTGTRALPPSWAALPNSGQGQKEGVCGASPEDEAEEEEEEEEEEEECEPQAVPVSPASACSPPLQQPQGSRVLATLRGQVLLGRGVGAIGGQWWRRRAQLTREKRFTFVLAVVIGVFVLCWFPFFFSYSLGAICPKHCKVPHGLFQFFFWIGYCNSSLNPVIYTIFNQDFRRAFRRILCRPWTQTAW
# [5] = target: Adrenergic receptor alpha-2 (Homo sapiens) (UniProt P08913+P18825+P18089); test: In vitro alpha 2 adrenergic activity uin phenozybenzamine pretreated dog saphenous vein expressed as percent maximum response of the tissue to norepinephrine.; type: functional, tissue-based; settings: Canis lupus familiaris
# [6] = target: T3, Adrenergic receptor alpha (Homo sapiens) (UniProt P35348+P08913+P18825+P25100+P35368+P18089); test: In vitro alpha-2 selectivity which is the measure of Ratio of Ki of alpha-1 adrenoceptor to Ki of alpha-2 adrenoceptor; type: protein assay
# [7] = Ratio of ED50 of NE to ED50 of CPD from Rabbit aorta alpha-1 adrenoceptor; type: tissue-based
# [8] = target: T3, Adrenergic receptor alpha (Homo sapiens); test: Ratio of Ki of alpha-1 to Ki of alpha-2 adrenoceptor; type: protein assay
compound,measurement,setting,value
CNCC1OCc2c1ccc(O)c2O (stereo not given),Ratio,[1],1.69
same,Emax,[2],126
same,Ki,[3],1970 nM
same,Ki,[4],18 nM
same,Emax,[5],94
same,Ratio,[6],5.3
same,Ratio,[7],0.32
same,Ratio,[8],112
NCC1OCc2cc(O)c(O)cc21 (stereo not given),Ki,[3],99000 nM
same,Ki,[4],13000 nM
same,Ratio,[8],9.7
CCCN(CCC)CC1OCc2c1ccc(O)c2O (stereo not given),Ki,[3],10300 nM
same,Ki,[4],670 nM
same,Ratio,[8],15
NCC1OCc2c1ccc(O)c2O (stereo not given),Ratio,[1],1.45
same,Emax,[2],107
same,Ki,[3],9800 nM
same,Ki,[4],77 nM
same,Emax,[5],90
same,Ratio,[6],36.3
same,Ratio,[7],0.04
same,Ratio,[8],127
NCC1CCc2cc(O)c(O)cc21 (stereo not given),Ki,[3],26000 nM
same,Ki,[4],520 nM
same,Ratio,[8],50
NCC1CCc2c1ccc(O)c2O (stereo not given),Ratio,[1],3.55
same,Emax,[2],102
same,Ki,[3],2250 nM
same,Ki,[4],15 nM
same,Emax,[5],91
same,Ratio,[6],209
same,Ratio,[7],0.017
same,Ratio,[8],145
CCCN(CCC)CC1CCc2c1ccc(O)c2O (stereo not given),Ki,[3],7400 nM
same,Ki,[4],470 nM
same,Ratio,[8],16
CNCC1CCc2c1ccc(O)c2O (stereo not given),Ratio,[1],29.6
same,Emax,[2],109
same,Ki,[3],2000 nM
same,Ki,[4],7 nM
same,Emax,[5],81
same,Ratio,[6],110
same,Ratio,[7],0.27
same,Ratio,[8],323
CN(C)CC1OCc2c1ccc(O)c2O (stereo not given),Ratio,[1],4
same,Emax,[2],114
same,Ki,[3],1160 nM
same,Ki,[4],10.7 nM
same,Emax,[5],107
same,Ratio,[6],4
same,Ratio,[7],1
same,Ratio,[8],109
CN(C)CC1CCc2c1ccc(O)c2O (stereo not given),Ratio,[1],2.05
same,Emax,[2],105
same,Ki,[3],6900 nM
same,Ki,[4],25 nM
same,Emax,[5],101
same,Ratio,[6],7.6
same,Ratio,[7],0.27
same,Ratio,[8],276
